In ChEMBL document CHEMBL5316313, “Discovery of Novel 3-Phenylpiperidine Derivatives Targeting the β-Catenin/B-Cell Lymphoma 9 Interaction as a Single Agent and in Combination with the Anti-PD-1 Antibody for the Treatment of Colorectal Cancer” (J Med Chem, 2023):
The source made the active and inactive calls. The rule behind the calls is not given here.

Experiments:
CT26 [1] = experiment: Antitumor activity in mouse CT26 cells xenografted in BALB/c mouse assessed as increase in GZMB mRNA expression level in tumor at 30 mg/kg, ip QD by qRT-PCR analysis; type: functional, organism-based
[2] = Toxicity in BALB/c mouse xenografted with mouse CT26 cells assessed as pathological changes in kidney at 30 mg/kg, ip QD in presence of anti-PD-1 antibody cotreatment at 10 mg/kg,ip BIW by hematoxylin and eosin staining based microscopic analysis; type: organism-based; conditions: in vivo
[3] = Toxicity in BALB/c mouse xenografted with mouse CT26 cells assessed as pathological changes in lung at 30 mg/kg, ip QD in presence of anti-PD-1 antibody cotreatment at 10 mg/kg,ip BIW by hematoxylin and eosin staining based microscopic analysis; type: organism-based; conditions: in vivo
[4] = Toxicity in BALB/c mouse xenografted with mouse CT26 cells assessed as pathological changes in heart at 30 mg/kg, ip QD by hematoxylin and eosin staining based microscopic analysis; type: organism-based; conditions: in vivo
HCT-116 = experiment: Induction of apoptosis in Wnt-dependent human HCT-116 cells assessed as late apoptotic cells at 20 uM incubated for 24 hrs by Annexin V-Alexa Fluor 647/PI staining based flow cytomtery (Rvb=14.7%); type: functional
CT26 [5] = experiment: Synergistic antitumor activity in mouse CT26 cells xenografted in BALB/c mouse assessed as decrease in Foxp3-positive Treg cells in TIME tumor cells at 30 mg/kg, ip QD in presence of anti-PD-1 antibody cotreatment at 10 mg/kg,ip BIW by flow cytomtery; type: functional, organism-based
CT26 [6] = experiment: Induction of apoptosis in Wnt-dependent mouse CT26 cells assessed as early apoptotic cells at 20 uM incubated for 24 hrs by Annexin V-Alexa Fluor 647/PI staining based flow cytomtery (Rvb=18.3%); type: functional
[7] = Clearance in Sprague-Dawley rat at 21 mg/kg, ip and measured upto 24 hrs by LC-MS analysis; type: ADME, organism-based; conditions: in vivo
[8] = Toxicity in BALB/c mouse xenografted with mouse CT26 cells assessed as pathological changes in liver at 30 mg/kg, ip QD in presence of anti-PD-1 antibody cotreatment at 10 mg/kg,ip BIW by hematoxylin and eosin staining based microscopic analysis; type: organism-based; conditions: in vivo
[9] = target: T1, beta-catenin-B-cell lymphoma 9 protein complex (Homo sapiens, UniProt P35222); experiment: Inhibition of beta-catenin/BCL9 protein-protein interaction in Wnt-dependent human HCT-116 cells assessed as reduction in Axin2 expression level by qRT-PCR assay; type: cell-based
T1 sequence (P35222 whole entry): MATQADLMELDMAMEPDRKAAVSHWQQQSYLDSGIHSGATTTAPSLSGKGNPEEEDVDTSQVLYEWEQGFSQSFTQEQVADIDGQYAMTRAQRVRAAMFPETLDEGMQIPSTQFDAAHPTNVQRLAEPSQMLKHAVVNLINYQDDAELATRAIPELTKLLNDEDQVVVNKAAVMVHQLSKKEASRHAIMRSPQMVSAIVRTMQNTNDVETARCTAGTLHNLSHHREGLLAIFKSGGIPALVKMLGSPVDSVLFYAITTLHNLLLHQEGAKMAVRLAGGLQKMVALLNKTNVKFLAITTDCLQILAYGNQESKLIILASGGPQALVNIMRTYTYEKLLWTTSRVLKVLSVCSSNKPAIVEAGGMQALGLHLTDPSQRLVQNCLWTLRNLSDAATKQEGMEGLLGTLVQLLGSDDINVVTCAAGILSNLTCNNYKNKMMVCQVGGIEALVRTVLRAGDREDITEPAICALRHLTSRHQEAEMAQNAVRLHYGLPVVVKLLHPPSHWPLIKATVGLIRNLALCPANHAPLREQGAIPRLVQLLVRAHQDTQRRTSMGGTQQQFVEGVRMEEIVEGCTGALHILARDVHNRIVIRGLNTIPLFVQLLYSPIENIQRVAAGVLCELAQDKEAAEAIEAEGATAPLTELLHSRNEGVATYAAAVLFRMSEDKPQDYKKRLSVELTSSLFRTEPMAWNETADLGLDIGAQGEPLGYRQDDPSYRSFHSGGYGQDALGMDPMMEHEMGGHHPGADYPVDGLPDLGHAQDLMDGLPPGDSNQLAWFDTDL
T1 sequence (O00512 whole entry): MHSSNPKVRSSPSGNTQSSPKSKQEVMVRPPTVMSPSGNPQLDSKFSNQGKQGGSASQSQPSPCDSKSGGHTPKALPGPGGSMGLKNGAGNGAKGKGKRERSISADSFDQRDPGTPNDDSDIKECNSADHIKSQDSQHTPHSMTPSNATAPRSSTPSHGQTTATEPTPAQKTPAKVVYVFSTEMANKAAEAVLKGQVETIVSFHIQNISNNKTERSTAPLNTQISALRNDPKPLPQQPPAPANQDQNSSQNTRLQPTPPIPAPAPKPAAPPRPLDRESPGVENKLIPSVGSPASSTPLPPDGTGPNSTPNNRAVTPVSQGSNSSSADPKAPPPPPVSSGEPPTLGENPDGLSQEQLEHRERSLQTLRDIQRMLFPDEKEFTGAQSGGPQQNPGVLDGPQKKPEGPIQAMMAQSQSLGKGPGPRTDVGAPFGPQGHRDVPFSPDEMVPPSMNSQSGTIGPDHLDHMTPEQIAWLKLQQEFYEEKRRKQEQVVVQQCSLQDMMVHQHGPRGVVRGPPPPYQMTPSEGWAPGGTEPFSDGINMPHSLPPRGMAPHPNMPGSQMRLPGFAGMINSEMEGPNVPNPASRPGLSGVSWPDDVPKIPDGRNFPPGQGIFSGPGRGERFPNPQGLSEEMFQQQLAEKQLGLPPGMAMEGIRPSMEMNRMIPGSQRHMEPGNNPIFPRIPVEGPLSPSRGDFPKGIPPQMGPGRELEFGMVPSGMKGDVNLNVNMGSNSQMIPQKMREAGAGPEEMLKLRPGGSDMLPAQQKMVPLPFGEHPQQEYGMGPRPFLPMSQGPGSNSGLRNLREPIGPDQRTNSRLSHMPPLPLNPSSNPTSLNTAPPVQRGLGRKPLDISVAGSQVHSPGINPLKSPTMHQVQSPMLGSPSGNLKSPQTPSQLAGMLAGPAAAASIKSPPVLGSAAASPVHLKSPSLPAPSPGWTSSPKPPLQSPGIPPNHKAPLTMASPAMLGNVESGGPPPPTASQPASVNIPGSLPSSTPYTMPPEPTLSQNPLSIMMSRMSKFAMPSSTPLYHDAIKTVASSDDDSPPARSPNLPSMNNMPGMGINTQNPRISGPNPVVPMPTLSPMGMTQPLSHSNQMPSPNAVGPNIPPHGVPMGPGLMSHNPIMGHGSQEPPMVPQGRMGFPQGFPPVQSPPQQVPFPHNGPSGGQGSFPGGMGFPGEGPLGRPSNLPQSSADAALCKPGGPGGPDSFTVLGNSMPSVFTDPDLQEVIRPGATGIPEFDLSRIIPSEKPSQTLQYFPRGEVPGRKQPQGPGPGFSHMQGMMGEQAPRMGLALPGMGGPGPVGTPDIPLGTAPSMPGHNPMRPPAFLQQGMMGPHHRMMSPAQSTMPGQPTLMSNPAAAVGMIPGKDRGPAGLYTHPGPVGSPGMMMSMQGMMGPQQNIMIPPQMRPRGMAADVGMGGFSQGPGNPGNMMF

CL/F [7]	IC50 [9]	Structure (SMILES)	Activity (CT26 [1])	Activity [2]	Activity [3]	Activity [4]	Activity (HCT-116)	Activity (CT26 [5])	Activity (CT26 [6])	Activity [8]
20.1 mL/min/kg	–	CC(C)c1ccc(-c2cccc(S(=O)(=O)N3CCCC(c4cccc(OC(C)(C)C(=O)NS(=O)(=O)c5ccc(C(F)(F)F)cc5)c4)C3)c2)cc1 (stereo not given)	Active	Non-Toxic	Non-Toxic	Non-Toxic	33.1%	Active	28%	Non-Toxic
–	2690 nM	O=C1[C@H](Cc2ccc(O)cc2)N2C(=O)CCN(C(=O)NCc3ccccc3)[C@H]2CN1Cc1cccc2ccccc12	–	–	–	–	–	–	–	–
